In BindingDB's records for doi:10.7270/Q28K77JP (Burnham Center For Chemical Genomics, 2010):

Biological target: Delta-type opioid receptor (Homo sapiens, UniProt P41143)
Assay: DOR antagonists, SAR follow-up, image-based (AID 2357)

Chain of Delta-type opioid receptor (P41143 whole entry): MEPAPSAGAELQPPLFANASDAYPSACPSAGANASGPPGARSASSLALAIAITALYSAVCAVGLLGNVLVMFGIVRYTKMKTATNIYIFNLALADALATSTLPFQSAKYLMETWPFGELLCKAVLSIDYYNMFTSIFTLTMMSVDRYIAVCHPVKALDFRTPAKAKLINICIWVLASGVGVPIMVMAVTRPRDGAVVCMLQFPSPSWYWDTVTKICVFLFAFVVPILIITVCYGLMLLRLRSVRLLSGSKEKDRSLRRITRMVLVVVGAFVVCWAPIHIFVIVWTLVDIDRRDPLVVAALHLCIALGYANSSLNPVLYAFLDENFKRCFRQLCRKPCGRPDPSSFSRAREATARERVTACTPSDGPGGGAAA

How did the IC50 turn out when `Oc1ccc(CN=Nc2ccnc3cc(Cl)ccc23)cc1O` [(4Z)-4-[[2-(7-chloroquinolin-4-yl)hydrazinyl]methylidene]-2-hydroxycyclohexa-2,5-dien-1-one] was run?
Its IC50 is 18.9 µM.

`CCC(N=Nc1ccnc2cc(Cl)ccc12)c1ccc(O)cc1` (configuration not stated) [4-[1-[2-(7-chloroquinolin-4-yl)hydrazinyl]propylidene]cyclohexa-2,5-dien-1-one] was tested. Which IC50 did it give?
Its IC50 is 32 µM.
